Experimental data published in the supplement of paper PMC4862054.

What was measured:
Test in all cases: normalised response (% of control), CellTiter-Glo; higher = more viable cells (100 = DMSO, 0 = benzethonium chloride kill control)
Conditions in all cases: incubation time: 72 h
Hs578T = system: Hs578T
Procedure, shortened: (§1)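 Each value is the plate-normalised signal at one concentration of the series. Breast cancer cell lines (20 µl suspension) were incubated 72 h in 384-well plates with compound at 5 concentrations in 10-fold steps over a compound-specific 10,000-fold range. CellTox Green and then CellTiter-Glo were read, and each plate was scaled to 0.1 % DMSO (100) and a positive kill control (0).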

HCC1937 = system: HCC1937
Procedure, shortened: as §1

CAL-51 = system: CAL-51
Procedure, shortened: as §1

BT-474 = system: BT-474
Procedure, shortened: as §1

CAL-85-1 = system: CAL-85-1
Procedure, shortened: as §1

HCC1143 = system: HCC1143
Procedure, shortened: as §1

MDA-MB-231 = system: MDA-MB-231
Procedure, shortened: as §1

MFM-223 = system: MFM-223
Procedure, shortened: as §1

CAL-148 = system: CAL-148
Procedure, shortened: as §1

HDQ-P1 = system: HDQ-P1
Procedure, shortened: as §1

SK-BR-3 = system: SK-BR-3
Procedure, shortened: as §1

MDA-MB-436 = system: MDA-MB-436
Procedure, shortened: as §1

BT-549 = system: BT-549
Procedure, shortened: as §1

MDA-MB-453 = system: MDA-MB-453
Procedure, shortened: as §1

CAL-120 = system: CAL-120
Procedure, shortened: as §1

MDA-MB-468 = system: MDA-MB-468
Procedure, shortened: as §1

DU-4475 = system: DU-4475
Procedure, shortened: as §1

MCF-10A = system: MCF-10A
Procedure, shortened: as §1

HCC1599 = system: HCC1599
Procedure, shortened: as §1

Structure (SMILES) | normalised response (Hs578T) | normalised response (HCC1937) | normalised response (CAL-51) | normalised response (BT-474) | normalised response (CAL-85-1) | normalised response (HCC1143) | normalised response (MDA-MB-231) | normalised response (MFM-223) | normalised response (CAL-148) | normalised response (HDQ-P1) | normalised response (SK-BR-3) | normalised response (MDA-MB-436) | normalised response (BT-549) | normalised response (MDA-MB-453) | normalised response (CAL-120) | normalised response (MDA-MB-468) | normalised response (DU-4475) | normalised response (MCF-10A) | normalised response (HCC1599)
CO[C@H]1C[C@@H]2CC[C@@H](C)[C@@](O)(O2)C(=O)C(=O)N2CCCC[C@H]2C(=O)O[C@H]([C@H](C)C[C@@H]2CC[C@@H](OCCO)[C@H](OC)C2)CC(=O)[C@H](C)/C=C(\C)[C@@H](O)[C@@H](OC)C(=O)[C@H](C)C[C@H](C)/C=C/C=C/C=C/1C [Everolimus] (0.01 nM) | 91.2% | 95.9% | 132% | 103% | 95.3% | 93% | 98.9% | 95.3% | 90.1% | 96.1% | 93.4% | 95.7% | 103% | 99.3% | 97.8% | 105% | 98.7% | 93.6% | 107%
CCCCCCCCc1ccc(CCC(N)(CO)CO)cc1 [Fingolimod] (10 nM) | 103% | 100% | 125% | 99.7% | 111% | 99.5% | 99.2% | 101% | 94.5% | 104% | 105% | 94.5% | 98.1% | 105% | 95.5% | 94.2% | 103% | 105% | 120%
CC[C@]1(O)C[C@H]2CN(CCc3c([nH]c4ccccc34)[C@@](C(=O)OC)(c3cc4c(cc3OC)N(C=O)[C@H]3[C@@](O)(C(=O)OC)[C@H](OC(C)=O)[C@]5(CC)C=CCN6CC[C@]43[C@@H]65)C2)C1 [Vincristine] (0.1 nM) | 110% | 94.1% | 88.2% | 97.8% | 99.1% | 103% | 104% | 102% | 109% | 99.9% | 102% | 116% | 99.5% | 107% | 94.7% | 112% | 106% | 105% | 92.7%
Nc1nc(OCc2cc(Br)cs2)c2[nH]cnc2n1 [Lomeguatrib] (10 nM) | 105% | 98.9% | 69.8% | 104% | 94.2% | 101% | 98.5% | 97.4% | 105% | 104% | 105% | 103% | 93.5% | 97.3% | 101% | 101% | 104% | 109% | 91.8%
C[C@]12CC[C@H](O)CC1=CC[C@@H]1[C@@H]2CC[C@]2(C)C(c3cccnc3)=CC[C@@H]12 [Abiraterone] (5 nM) | 104% | 94.6% | 136% | 107% | 110% | 101% | 106% | 97.5% | 91.8% | 99.5% | 111% | 103% | 95.6% | 116% | 95.7% | 99% | 109% | 102% | 116%
CN(C)C[C@@H]1CCn2cc(c3ccccc32)C2=C(C(=O)NC2=O)c2cn(c3ccccc23)CCO1 [Ruboxistaurin] (10 nM) | 98.1% | 99.5% | 91.4% | 99.1% | 95.6% | 99.9% | 94% | 94.6% | 96.1% | 101% | 116% | 101% | 95.5% | 100% | 94.3% | 103% | 95.3% | 98.3% | 104%
CN(C)C[C@@H]1CCn2cc(c3ccccc32)C2=C(C(=O)NC2=O)c2cn(c3ccccc23)CCO1 [Ruboxistaurin] (1 nM) | 96.7% | 94.6% | 129% | 95.3% | 96.7% | 94.4% | 97.9% | 98.6% | 97.7% | 101% | 98.4% | 105% | 96.9% | 98.9% | 90.3% | 106% | 99.8% | 106% | 99.2%
COc1ccccc1S(=O)(=O)Nc1ccc2c(c1)CN(C)C(=O)N2 [PFI-1] (10 nM) | 106% | 94.5% | 102% | 99.7% | 94.6% | 102% | 103% | 109% | 108% | 96% | 88.4% | 97.1% | 90.1% | 97.2% | 91.8% | 95.3% | 109% | 103% | 88.6%
CO[C@H]1C[C@@H]2CC[C@@H](C)[C@@](O)(O2)C(=O)C(=O)N2CCCC[C@H]2C(=O)O[C@H]([C@H](C)C[C@@H]2CC[C@@H](OCCO)[C@H](OC)C2)CC(=O)[C@H](C)/C=C(\C)[C@@H](O)[C@@H](OC)C(=O)[C@H](C)C[C@H](C)/C=C/C=C/C=C/1C [Everolimus] (0.1 nM) | 89.5% | 88% | 115% | 92% | 90% | 92% | 99.2% | 88.4% | 80.7% | 94.4% | 92% | 90.7% | 88% | 95.8% | 95.9% | 84.8% | 95% | 96% | 90.5%
Cc1ccc(NC(=O)c2ccc(CN3CCN(C)CC3)cc2)cc1Nc1nccc(-c2cccnc2)n1 [Imatinib] (10 nM) | 107% | 99.3% | 107% | 104% | 96% | 101% | 99.9% | 109% | 113% | 106% | 109% | 103% | 96.7% | 108% | 102% | 113% | 109% | 104% | 103%
COc1ccc(-c2ccc3c(N4CCOC[C@@H]4C)nc(N4CCOC[C@@H]4C)nc3n2)cc1CO [AZD8055] (10 nM) | 92.2% | 84.2% | 92.8% | 84.8% | 85.4% | 86.8% | 88% | 77.8% | 82.5% | 74.6% | 53.5% | 76.5% | 77.9% | 79.3% | 81.1% | 80.1% | 92% | 87% | 98.3%
CN(C)CCN1C(=O)c2cccc3cc(N)cc(c23)C1=O [Amonafide] (10 nM) | 99.8% | 96.9% | 123% | 98.7% | 98% | 101% | 102% | 99.8% | 86.5% | 100% | – | 103% | 100% | 98.6% | 97% | 93% | 99.7% | 97.6% | 95%
CN1CCN(CCOc2cc(OC3CCOCC3)c3c(Nc4c(Cl)ccc5c4OCO5)ncnc3c2)CC1 [Saracatinib] (1 nM) | 97.4% | 95.7% | 116% | 94.4% | 105% | 89.2% | 94.6% | 97.5% | 97.9% | 94.5% | 98.6% | 103% | 105% | 103% | 94.4% | 99.2% | 102% | 96.5% | 116%
CNNCc1ccc(C(=O)NC(C)C)cc1 [Procarbazine] (10 nM) | 101% | 107% | 66.9% | 97.9% | 99% | 105% | 106% | 104% | 108% | 109% | 109% | 97.2% | 100% | 95.8% | 102% | 113% | 107% | 103% | 91.3%
C/C(=C\c1csc(C)n1)[C@@H]1C[C@@H]2O[C@]2(C)CCC[C@H](C)[C@H](O)[C@@H](C)C(=O)C(C)(C)[C@@H](O)CC(=O)O1 [Patupilone] (1 nM) | 104% | 103% | 99.2% | 104% | 105% | 111% | 107% | 101% | 106% | 97.3% | – | 108% | 97.3% | 107% | 103% | 109% | 106% | 106% | 117%
Cn1c(=O)n(-c2ccc(C(C)(C)C#N)cc2)c2c3cc(-c4cnc5ccccc5c4)ccc3ncc21 [Dactolisib] (1 nM) | 95.7% | 98.7% | 83.4% | 106% | 101% | 98.5% | 107% | 108% | 116% | 95% | – | 95.8% | 101% | 110% | 90.2% | 103% | 107% | 113% | 95.8%
Nc1ncnc2c1c(COc1cccc(Cl)c1)nn2C1CCOCC1 (10 nM) | 108% | 97.7% | 94.8% | 101% | 101% | 105% | 107% | 105% | 115% | 99.1% | – | 105% | 98.2% | 104% | 96.6% | 106% | 105% | 114% | 101%
O=C(O)CCCc1ccc(N(CCCl)CCCl)cc1 [Chlorambucil] (10 nM) | 103% | 98.8% | 95.2% | 99.1% | 108% | 102% | 106% | 108% | 101% | 99.7% | – | 104% | 102% | 101% | 97.2% | 101% | 101% | 93.6% | 97.8%
CC[C@]1(O)C[C@H]2CN(CCc3c([nH]c4ccccc34)[C@@](C(=O)OC)(c3cc4c(cc3OC)N(C=O)[C@H]3[C@@](O)(C(=O)OC)[C@H](OC(C)=O)[C@]5(CC)C=CCN6CC[C@]43[C@@H]65)C2)C1 [Vincristine] (1 nM) | 105% | 96.3% | 91.4% | 100% | 102% | 104% | 99.4% | 104% | 110% | 97.6% | – | 106% | 87.6% | 104% | 96.4% | 95.3% | 106% | 104% | 113%
